From patent US20110177943A1, “Benzyl-Substituted Thiadiazolyloxyphenylamidinium Salts” (priority 2009, published 2011)
Counter-ions that a name gives are not always drawn. Like-named read-outs stand apart in the source and are kept apart here. Marks after values point to notes of the source that are not given here.

Key:
[1] = logP by HPLC on reversed-phase columns (EEC directive 79/831 Annex V.A8); assay type: physicochemical; conditions: for chromatographic logP: [b] LC-MS determination in the acidic range at pH 2.7, 0.1% aqueous formic acid and acetonitrile, read-out: log p
Method: Calibration was carried out using unbranched alkan-2-ones (having from 3 to 16 carbon atoms) with known logP values (the logP values were determined by the retention times using linear interpolation between two successive alkanones).

Phakopsora pachyrhizi = assay: Phakopsora Test (soya beans)/Protective; assay type: in vivo; conditions: protective, active compound concentration 100 ppm, evaluation 11 days after inoculation
Method: Phakopsora Test (soya beans)/Protective
One day after spraying, the plants are inoculated with an aqueous spore suspension of the soya bean rust pathogen (Phakopsora pachyrhizi). The plants are placed in a greenhouse at 20° C. and a rel. atmospheric humidity of 80%.
Evaluation is carried out 11 days after the inoculation.

Fusarium proliferatum = assay: Production of Fumonisin FB1 by Fusarium proliferatum; assay type: cell-based; conditions: 120 h, read-out: inhibition of fumonisin FB1 production
Method: Production of Fumonisin FB1 by Fusarium proliferatum
The compounds were tested in microtitre plates at 5 concentrations of from 0.08 μM to 50 μM in a fumonisin-inducing liquid medium (0.5 g of malt extract, 1 g of yeast extract, 1 g of bactopeptone, 20 g of fructose, 1 g of KH2PO4, 0.3 g of MgSO47 H2O, 0.3 g of KCl, 0.05 g of ZnSO47 H2O and 0.01 g of CuSO4×5 H2O per litre) with DMSO (0.5%). Inoculation was carried out using a concentrated spore suspension of Fusarium proliferatum at a final concentration of 2000 spores/ml.
The plate was incubated at 20° C. and high atmospheric humidity for 5 days.
At the beginning and after 5 days, the OD was measured at OD620 (repeated measurements: 3×3 measurements per well) to calculate the inhibition of growth.
After 5 days, a sample of the liquid medium was removed and diluted 1:1000 with 50% strength acetonitrile. The concentration of FB1 of the diluted samples was analysed by HPLC-MS/MS, and the measured values were used to calculate the inhibition of fumonisin FB1 production compared to an active compound-free control. […]

Sphaerotheca fuliginea = conditions: cucumber, protective, active compound concentration 500 ppm, evaluation 7 days after inoculation
Method: Sphaerotheca Test (cucumber)/protective
1 day after the treatment, the plants are inoculated with a spore suspension of Sphaerotheca fuliginea. The plants are then placed in a greenhouse at a relative atmospheric humidity of 70% and a temperature of 23° C.
Evaluation is carried out 7 days after the inoculation.

In the case of `CCN(C)C=Nc1cc(C)c(Oc2nc(Cc3ccc(Cl)cc3)ns2)cc1C.O=S(=O)(O)O` [Example 1, N′-(4-{[3-(4-chlorobenzyl)-1,2,4-thiadiazol-5-yl]oxy}-2,5-dimethylphenyl)-N-ethyl-N-methylimidoformamidesulphate], the log p ([1]; pH 2.7) is reported as 1.88^[b].
For `CCN(C)C=Nc1cc(C)c(Oc2nc(Cc3ccc(Cl)cc3)ns2)cc1C` [Example 3, N′-(4-{[3-(4-Chlorobenzyl)-1,2,4-thiadiazol-5-yl]oxy}-2,5-dimethylphenyl)-N-ethyl-N-methylimidoformamide hydrochloride (1:1)], the chromatographic logP [1] was 2.03.
With `Br.CCN(C)C=Nc1cc(C)c(Oc2nc(Cc3ccc(Cl)cc3)ns2)cc1C` [Example 2, N′-(4-{[3-(4-chlorobenzyl)-1,2,4-thiadiazol-5-yl]oxy}-2,5-dimethylphenyl)-N-ethyl-N-methylimidoformamide hydrobromide] the chromatographic logP ([1]; reversed-phase HPLC column) was 1.83, the efficacy (Phakopsora pachyrhizi) was ≥ 80% and the inhibition at 50 µM (Fusarium proliferatum) was > 80%.
In the case of “N′-(4-{[3-(4-chlorobenzyl)-1,2,4-thiadiazol-5-yl]oxy}-2,5-dimethylphenyl)-N-ethyl-N-methylimido-formamide-1,2-benzothiazol-3(2H)-one 1,1-dioxide [Example 4]”, the efficacy (Sphaerotheca fuliginea) is reported as ≥ 70%.
